Read-outs that look alike come from different tables or passages of the source.
Legend:
[1] = target: T1, human AR (androgen receptor) (Homo sapiens, UniProt P10275); experiment: Steroid hormone nuclear receptor binding assay, AR binding
T1 construct: expressed in transfected cells; host or cells: 293 cells (293-AR lysate)
T1 sequence (P10275 1-920): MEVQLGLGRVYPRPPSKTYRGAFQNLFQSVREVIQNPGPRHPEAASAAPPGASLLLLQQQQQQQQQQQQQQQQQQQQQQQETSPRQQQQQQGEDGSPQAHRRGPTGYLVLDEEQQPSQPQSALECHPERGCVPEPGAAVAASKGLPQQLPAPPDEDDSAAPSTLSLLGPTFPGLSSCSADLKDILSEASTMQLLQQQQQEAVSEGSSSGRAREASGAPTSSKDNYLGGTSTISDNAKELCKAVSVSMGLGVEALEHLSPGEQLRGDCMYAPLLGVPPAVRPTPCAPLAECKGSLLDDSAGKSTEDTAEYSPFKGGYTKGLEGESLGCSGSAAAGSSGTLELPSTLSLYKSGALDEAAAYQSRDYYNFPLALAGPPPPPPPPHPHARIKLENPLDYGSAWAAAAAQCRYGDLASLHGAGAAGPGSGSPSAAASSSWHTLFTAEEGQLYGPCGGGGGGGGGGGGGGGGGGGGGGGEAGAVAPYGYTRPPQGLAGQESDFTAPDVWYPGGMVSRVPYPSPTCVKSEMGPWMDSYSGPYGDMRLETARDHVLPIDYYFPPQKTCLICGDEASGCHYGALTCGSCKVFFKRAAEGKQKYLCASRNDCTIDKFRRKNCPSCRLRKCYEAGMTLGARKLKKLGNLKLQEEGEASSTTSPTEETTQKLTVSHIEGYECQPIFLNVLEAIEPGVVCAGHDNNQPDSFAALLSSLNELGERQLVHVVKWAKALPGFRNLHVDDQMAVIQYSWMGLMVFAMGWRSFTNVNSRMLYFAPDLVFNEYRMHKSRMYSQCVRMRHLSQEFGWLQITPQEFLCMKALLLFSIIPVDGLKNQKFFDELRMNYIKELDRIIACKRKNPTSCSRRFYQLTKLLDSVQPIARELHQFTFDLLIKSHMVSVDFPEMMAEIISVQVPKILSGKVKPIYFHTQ
Procedure, shortened: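 Competition binding with lysates of 293 cells overexpressing human AR, [3H]-methyltrienolone tracer, compounds from about 0.01 nM to 10 μM, overnight at 4 °C; non-specific binding set with 500 nM methyltrienolone. Bound tracer counted by scintillation after charcoal-dextran separation; IC50 converted to Ki by Cheng-Prusoff using Kd from saturation binding.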

[2] = target: T2, human androgen receptor (AR) (Homo sapiens, UniProt P10275); experiment: C2C12 AR/ARE reporter assay; assay type: cell-based; details: for Emax: C2C12, read-out: C2C12 % Efficacy
T2 construct: expressed in transfected cells; host or cells: mouse myoblast C2C12 cells, transiently co-transfected
T2 sequence (P10275 1-920): T1 sequence (P10275 1-920)
Procedure, shortened: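 Mouse C2C12 myoblasts co-transfected with AR/ARE reporter were plated in charcoal-stripped serum and treated for 48 h with compound from about 0.01 nM to 10 μM. Luciferase activity gave EC50 by 4-parameter logistic fit. Efficacy is expressed as % of maximal stimulation by 10 nM methyltrienolone.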

| Structure (SMILES) | Ki [1] [nM] | EC50 [2] [nM] | Emax [2] [%] | melting point | Ki ([1]; read-out: AR binding Ki, average of n trials) [nM] | EC50 ([2]; read-out: C2C12 EC50, C2C12 AR/ARE reporter assay, average of n trials) [nM] |
| --- | --- | --- | --- | --- | --- | --- |
| CC(C)C(=O)N[C@@H]1CCc2c(c3cc(C#N)ccc3n2Cc2cccc(F)c2)C1 (single isomer, unassigned) [Example 123] | 1 | 1.8 | 87 | 223 to 225 °C | – | – |
| CC(C)C(=O)NC1CCc2c(c3cc(Br)ccc3n2Cc2cccc(F)c2)C1 (centres unmarked) [Example 1, N-[9-(3-Fluorobenzyl)-6-bromo-2,3,4,9-tetrahydro-1H-carbazol-3-yl]isobutyramide] | – | – | – | 177 to 179 °C | 2.6 | 2.3 |
| CC(C)C(=O)NC1CCc2c(c3ccccc3n2Cc2ccccc2)C1 (centres unmarked) [Example 2] | 17.7 | 313 | 59.4 | 191 to 193 °C | – | – |
| CC(C)C(=O)NC1CCc2c(c3ccccc3n2Cc2cccc(F)c2)C1 (centres unmarked) [Example 3] | 10.1 | 194 | 66.4 | 170 to 172 °C | – | – |
| CC(C)C(=O)NC1CCc2c(c3cc(F)ccc3n2Cc2ccccc2F)C1 (centres unmarked) [Example 4] | – | – | 36.1 | 156 to 158 °C | – | – |
| CC(C)C(=O)NC1CCc2c(c3cc(F)ccc3n2Cc2ccccc2Cl)C1 (centres unmarked) [Example 5] | 24.6 | – | 80.3 | 155 to 157 °C | – | – |
| COc1ccccc1Cn1c2c(c3cc(F)ccc31)CC(NC(=O)C(C)C)CC2 (centres unmarked) [Example 6] | 156 | 1770 | 49.7 | 196 to 198 °C | – | – |
| CC(C)C(=O)NC1CCc2c(c3cc(F)ccc3n2Cc2ccccc2C#N)C1 (centres unmarked) [Example 7] | 99.6 | – | 35.8 | 164 to 167 °C | – | – |
| CC(C)C(=O)NC1CCc2c(c3cc(F)ccc3n2Cc2cccc(F)c2)C1 (centres unmarked) [Example 8] | 2.5 | 57.8 | 108 | 181 to 184 °C | – | – |
| CC(C)C(=O)NC1CCc2c(c3cc(F)ccc3n2Cc2cccc(Cl)c2)C1 (centres unmarked) [Example 9] | 7.2 | 113 | 62.3 | 177 to 179 °C | – | – |
| CC(C)C(=O)NC1CCc2c(c3cc(F)ccc3n2Cc2cccc(C#N)c2)C1 (centres unmarked) [Example 11] | 61.5 | 2180 | 36.3 | 184 to 186 °C | – | – |
| CC(C)C(=O)NC1CCc2c(c3cc(F)ccc3n2Cc2ccc(F)cc2)C1 (centres unmarked) [Example 12] | 25 | 186 | 50 | 166 to 168 °C | – | – |
| CC(C)C(=O)NC1CCc2c(c3cc(F)ccc3n2Cc2ccc(Cl)cc2)C1 (centres unmarked) [Example 13] | 33.5 | 1030 | 55.5 | 188 to 190 °C | – | – |
| CC(C)C(=O)NC1CCc2c(c3cc(F)ccc3n2Cc2ccc(C#N)cc2)C1 (centres unmarked) [Example 14] | 81.4 | 927 | 36.4 | 181 to 184 °C | – | – |
| COc1ccc(Cn2c3c(c4cc(F)ccc42)CC(NC(=O)C(C)C)CC3)cc1 (centres unmarked) [Example 15] | 275 | – | 15.3 | 178 to 181 °C | – | – |
| CC(C)C(=O)NC1CCc2c(c3cc(Cl)ccc3n2Cc2ccccc2)C1 (centres unmarked) [Example 16] | – | – | 86 | 174 to 176 °C | – | – |
| CC(C)C(=O)NC1CCc2c(c3cc(Cl)ccc3n2Cc2ccccc2F)C1 (centres unmarked) [Example 17] | 8.6 | 148 | 62.1 | 190 to 193 °C | – | – |
| CC(C)C(=O)NC1CCc2c(c3cc(Cl)ccc3n2Cc2ccccc2Cl)C1 (centres unmarked) [Example 18] | 10.5 | 153 | 82.1 | 197 to 199 °C | – | – |
| COc1ccccc1Cn1c2c(c3cc(Cl)ccc31)CC(NC(=O)C(C)C)CC2 (centres unmarked) [Example 19, N-[6-chloro-9-(2-methoxy-benzyl)-2,3,4,9-tetrahydro-1H-carbazol-3-yl]-isobutyramide] | 37.8 | 245 | 63.2 | 141 to 149 °C | – | – |

| Structure (SMILES) | Ki [1] [nM] | EC50 [2] [nM] | Emax [2] [%] | melting point | Ki ([1]; read-out: AR binding Ki, average of n trials) [nM] | EC50 ([2]; read-out: C2C12 EC50, C2C12 AR/ARE reporter assay, average of n trials) [nM] |
| --- | --- | --- | --- | --- | --- | --- |
| CC(C)C(=O)NC1CCc2c(c3cc(Cl)ccc3n2Cc2cccc(F)c2)C1 (centres unmarked) [Example 21] | – | – | 81 | 187 to 189 °C | – | – |
| CC(C)C(=O)NC1CCc2c(c3cc(Cl)ccc3n2Cc2cccc(Cl)c2)C1 (centres unmarked) [Example 22] | 3.5 | 75.7 | 74.7 | 187 to 189 °C | – | – |
| COc1cccc(Cn2c3c(c4cc(Cl)ccc42)CC(NC(=O)C(C)C)CC3)c1 (centres unmarked) [Example 23] | – | – | 54.4 | 178 to 181 °C | – | – |
| CC(C)C(=O)NC1CCc2c(c3cc(Cl)ccc3n2Cc2cccc(C#N)c2)C1 (centres unmarked) [Example 24] | – | – | 48.9 | 225 to 228 °C (dec.) | – | – |
| CC(C)C(=O)NC1CCc2c(c3cc(Cl)ccc3n2Cc2ccc(F)cc2)C1 (centres unmarked) [Example 25] | – | – | 62.7 | 175 to 178 °C | – | – |
| CC(C)C(=O)NC1CCc2c(c3cc(Cl)ccc3n2Cc2ccc(Cl)cc2)C1 (centres unmarked) [Example 26] | 16.6 | 301 | 33 | 176 to 178 °C | – | – |
| COc1ccc(Cn2c3c(c4cc(Cl)ccc42)CC(NC(=O)C(C)C)CC3)cc1 (centres unmarked) [Example 27] | 45.8 | – | 23.2 | 182 to 184 °C | – | – |
| CC(C)C(=O)NC1CCc2c(c3cc(Cl)ccc3n2Cc2ccc(C#N)cc2)C1 (centres unmarked) [Example 28] | 12.8 | 301 | 64.3 | 158 to 162 °C | – | – |
| CC(C)C(=O)NC1CCc2c(c3cc(Cl)ccc3n2Cc2cc(F)cc(F)c2)C1 (centres unmarked) [Example 29] | – | – | 64 | 207 to 210 °C | – | – |
| CC(C)C(=O)NC1CCc2c(c3cc(Br)ccc3n2Cc2ccccc2)C1 (centres unmarked) [Example 30] | – | – | 87 | 173 to 177 °C | – | – |
| CC(C)C(=O)NC1CCc2c(c3cc(Br)ccc3n2Cc2ccccc2F)C1 (centres unmarked) [Example 31] | 5.3 | 58.7 | 70.8 | 194 to 197 °C | – | – |
| CC(C)C(=O)NC1CCc2c(c3cc(Br)ccc3n2Cc2ccccc2Cl)C1 (centres unmarked) [Example 32] | – | – | 94.3 | 196 to 198 °C | – | – |
| CC(C)C(=O)NC1CCc2c(c3cc(Br)ccc3n2Cc2ccccc2C#N)C1 (centres unmarked) [Example 33] | 13 | 433 | 87.3 | 240 to 241.5 °C | – | – |
| COc1ccccc1Cn1c2c(c3cc(Br)ccc31)CC(NC(=O)C(C)C)CC2 (centres unmarked) [Example 34] | – | – | 103 | 108 to 111 °C | – | – |
| Cc1ccc2c(c1)c1c(n2Cc2cccc(F)c2)CCC(NC(=O)C(C)C)C1 (centres unmarked) [Example 47] | – | – | 86.3 | 215 to 217 °C | – | – |
| CC(C)C(=O)NC1CCc2c(c3cc(C#N)ccc3n2Cc2cccc(F)c2)C1 (centres unmarked) [Example 51, N-(6-cyano-9-(3-fluorobenzyl)-2,3,4,9-tetrahydro-1H-carbazol-3-yl)isobutyramide] | – | – | 87.5 | 195 to 199 °C | – | – |
| CC(C)C(=O)NC1CCc2c(c3ccc(Cl)cc3n2Cc2cccc(F)c2)C1 (centres unmarked) [Example 56] | – | – | 66.6 | 233 to 235 °C | – | – |
| CC(C)C(=O)NC1CCc2c(c3cccc(F)c3n2Cc2cccc(F)c2)C1 (centres unmarked) [Example 58] | – | – | 62.1 | 185 to 188 °C | – | – |
| CC(C)C(=O)N[C@@H]1CCc2c(c3cc(Br)ccc3n2Cc2cccc(F)c2)C1 [Example 122] | – | – | – | 204 to 207 °C | – | – |

— patent US7935722B2 (Eli Lilly and Company, priority 2005, dated 2011)
